Reference: patent US20240208930A1, “CRYSTALLINE FORM OF SPHINGOSINE-1-PHOSPHATE RECEPTOR AGONIST” (LG CHEM, LTD., priority 2021, published 2024)
Entries after “also recorded” stand apart in the source; their conditions may differ.

Columns and labels:
[1] = Stability test (XRPD, naked eye observation, HPLC) after storage under accelerated and severe conditions; format: physicochemical
Description: To investigate the stability of Crystalline Form A, after storage for 2 weeks under accelerated (40° C./75% RH) and severe (80° C.) conditions, the physical stability was confirmed by naked eye observation and XRD measurement (FIG. 7), and chemical stability was confirmed by the analysis of the sample purity using HPLC (Table 3). HPLC equipment and analysis methods are represented in Table 1.
A stability test was carried out in the same manner as in Example 2. • (5) Results

[2] = DVS (dynamic vapor sorption); format: physicochemical
Description: Moisture sorption/desorption data were collected on a DVS Intrinsic instrument (Surface Measurement Systems). Samples were not dried prior to analysis. Sorption and desorption data were collected over the range of 5% to 95% RH with 10% RH increments under nitrogen. The equilibrium criterion used in the analysis was less than 0.0100% change in weight in 5 minutes with a maximum equilibration time of 3 hours. Data on the initial moisture content of the samples were not corrected. The results are represented in FIG. 6.

[3] = severe condition (80° C.), 2 weeks

change in the crystal form in XRPD ([1]; 2 weeks, accelerated (40° C./75% RH) and severe (80° C.) conditions)	time physically stable ([1]; 80° C.)	sample purity using HPLC ([1]; Accelerated condition (40° C./75% RH), 1 week) [%]	sample purity using HPLC ([1]; Accelerated condition (40° C./75% RH), 2 weeks) [%]	sample purity using HPLC ([1]; Accelerated condition (40° C./75% RH), 3 days) [%]	sample purity using HPLC ([1]; Initial) [%]	sample purity using HPLC ([1]; Severe condition (80° C.), 1 week) [%]	sample purity using HPLC ([1]; Severe condition (80° C.), 3 days) [%]	amount of impurities in the sample [1, 3]	sample purity using HPLC [1, 3] [%]	SMILES	physical/chemical stability ([1]; 2 weeks, accelerated (40° C./75% RH) and severe (sealed state, 80° C.) conditions)	XRPD pattern of the solid retrieved after DVS [2]	naked eye observation ([1]; after 2 weeks of severe condition (80° C.))
no change in the crystal form	–	–	–	–	–	–	–	–	–	CC(C)n1nc(Cl)c2cc(COc3ccc4c(c3)CCC(CN3CCC(C(=O)O)CC3)=C4Cl)ccc21 [Crystalline Form A, 1-[1-chloro-6-(3-chloro-1-isopropyl-1H-indazol-5-ylmethoxy)-3,4-dihydro-naphthalen-2-ylmethyl]-piperidine-4-carboxylic acid]	physically/chemically stable; also recorded: physical/chemical stability was confirmed	XRPD patterns similar to the initial ones	–
–	at least 2 weeks	98.1	98.8	98.8	100.7	87.2	90.7	increased	77.3	CC(C)n1nc(Cl)c2cc(COc3ccc4c(c3)CCC(CN3CCC(C(=O)O)CC3)=C4Cl)ccc21 [amorphous form, 1-[1-chloro-6-(3-chloro-1-isopropyl-1H-indazol-5-ylmethoxy)-3,4-dihydro-naphthalen-2-ylmethyl]-piperidine-4-carboxylic acid]	–	–	free-flowing particles that were broken when struck and bubble-like yellow masses
